Measured values: ChEMBL document CHEMBL5113512, “β-Nitrostyrene derivatives as broad range potential antifungal agents targeting fungal cell wall” (2022)
Values after ≈ are worked out from the molar mass of the structure shown. Active and inactive are the calls of the source. No cut-off for these calls is given here.

Legend:
[1] = tested on: [Candida] auris; test: Antifungal activity against Candida auris 118 assessed as inhibition of fungal growth by broth microdilution method; type: functional; settings: Candidozyma auris
[2] = tested on: Candida albicans; test: Antifungal activity against Candida albicans ATCC 24433 overexpressing transporter protein F5 assessed as inhibition of fungal growth by broth microdilution method; type: functional
[3] = tested on: Candida albicans; test: Antifungal activity against Candida albicans ATCC 24433 overexpressing AD(1-8)u-assessed as inhibition of fungal growth by broth microdilution method; type: functional
[4] = tested on: Candida albicans; test: Antifungal activity against Candida albicans ATCC 24433 assessed as inhibition of fungal growth by broth microdilution method; type: functional
[5] = tested on: Nakaseomyces glabratus; test: Antifungal activity against Candida glabrata ATCC 2001 assessed as inhibition of fungal growth by broth microdilution method; type: functional
[6] = tested on: Candida albicans; test: Antifungal activity against Candida albicans ATCC 24433 overexpressing transporter protein GU5 assessed as inhibition of fungal growth by broth microdilution method; type: functional
[7] = tested on: Candida albicans; test: Antifungal activity against Candida albicans ATCC 24433 overexpressing ADCaMDR1-GFP assessed as inhibition of fungal growth by broth microdilution method; type: functional
[8] = tested on: Candida albicans; test: Antifungal activity against Candida albicans ATCC 24433 overexpressing ADCDR1-GFP assessed as inhibition of fungal growth by broth microdilution method; type: functional
[9] = tested on: Candida albicans; test: Antifungal activity against Candida albicans ATCC 24433 overexpressing transporter protein F2 assessed as inhibition of fungal growth by broth microdilution method; type: functional
[10] = tested on: Candida parapsilosis; test: Antifungal activity against Candida parapsilosis ATCC 90018 assessed as inhibition of fungal growth by broth microdilution method; type: functional; settings: Lodderomyces parapsilosis
[11] = tested on: Candida albicans; test: Antifungal activity against Candida albicans ATCC 24433 overexpressing ADPDR5-GFP assessed as inhibition of fungal growth by broth microdilution method; type: functional
[12] = tested on: [Candida] auris; test: Antifungal activity against wild type Candida auris 102 assessed as inhibition of fungal growth by broth microdilution method; type: functional; settings: Candidozyma auris
[13] = tested on: [Candida] auris; test: Antifungal activity against Candida auris 102 assessed as inhibition of fungal growth by broth microdilution method; type: functional; settings: Candidozyma auris
[14] = tested on: Candida albicans; test: Antifungal activity against Candida albicans ATCC 24433 overexpressing transporter protein GU4 assessed as inhibition of fungal growth by broth microdilution method; type: functional
[15] = tested on: [Candida] auris; test: Antifungal activity against Candida auris 105 assessed as inhibition of fungal growth by broth microdilution method; type: functional; settings: Candidozyma auris
[16] = tested on: Candida tropicalis; test: Antifungal activity against Candida tropicalis ATCC 750 assessed as inhibition of fungal growth by broth microdilution method; type: functional
[17] = tested on: [Candida] auris; test: Induction of ROS generation in Candida auris CBS10913 at sub-inhibitory concentration incubated for 1 hr by DCFDA staining-based flow cytometric analysis; type: functional, organism-based; settings: Candidozyma auris
[18] = tested on: Candida albicans; test: Antifungal activity against Candida albicans SN152 harboring CAS5 mutant assessed as inhibition of fungal growth by broth microdilution method; type: functional
[19] = tested on: Candida albicans; test: Synergistic antifungal activity against Candida albicans ATCC 24433 overexpressing ADPDR5-G assessed as fractional inhibitory concentration index incubated for 48 hrs in presence of caspofungin by checker board assay; type: functional
[20] = tested on: Candida albicans; test: Synergistic antifungal activity against Candida albicans ATCC 24433 overexpressing ADCDR1-GFP assessed as fractional inhibitory concentration index incubated for 48 hrs in presence of caspofungin by checker board assay; type: functional
[21] = tested on: Candida albicans; test: Inhibition of drug efflux in Candida albicans ATCC 24433 overexpressing AD(1-8)u- assessed as […] in nile red efflux incubated for 30 mins by flow cytometry; type: functional
[22] = tested on: Cell membrane; test: Disruption of membrane integrity in Candida albicans ATCC 24433 assessed as cell deformation measured after 30 mins by SEM analysis; type: subcellular
[23] = tested on: Candida albicans; test: Fungicidal activity against Candida albicans ATCC 24433 assessed as reduction in fungal growth by measuring reduction in colony count at sub-MIC concentration measured after 48 hrs by time kill assay; type: functional, organism-based
[24] = tested on: Candida albicans; test: Induction of ROS generation in Candida albicans ATCC 24433 at sub-inhibitory concentration incubated for 1 hr by DCFDA staining-based flow cytometric analysis; type: functional, organism-based
[25] = tested on: Candida albicans; test: Inhibition of drug efflux in Candida albicans ATCC 24433 overexpressing ADCaMDR1-GF assessed as […] in nile red efflux incubated for 30 mins by flow cytometry; type: functional
[26] = tested on: Candida albicans; test: Antifungal activity against wild type Candida albicans SN152 assessed as inhibition of fungal growth by broth microdilution method; type: functional
[27] = tested on: Candida albicans; test: Synergistic antifungal activity against Candida albicans ATCC 24433 assessed as fractional inhibitory concentration index incubated for 48 hrs in presence of caspofungin by checker board assay; type: functional
[28] = tested on: Cell membrane; test: Disruption of membrane integrity in Candida auris CBS10913 assessed as cell surface perturbations measured after 3 hrs by SEM analysis; type: subcellular; settings: Candidozyma auris
[29] = tested on: Cell membrane; test: Disruption of membrane integrity in Candida albicans ATCC 24433 assessed as cell shrinkage and lysis by measuring leakage of intracellular material measured after 6 hrs by SEM analysis; type: subcellular
[30] = tested on: [Candida] auris; test: Induction of ROS generation in Candida auris CBS10913 assessed as increase in relative fluorescence unit at sub-inhibitory concentration incubated for 1 hr by DCFDA staining-based flow cytometric analysis; type: functional, organism-based; settings: Candidozyma auris
[31] = tested on: Cell membrane; test: Disruption of membrane integrity in Candida albicans ATCC 24433 assessed as cell surface perturbations measured after 3 hrs by SEM analysis
[32] = tested on: Candida albicans; test: Synergistic antifungal activity against Candida albicans ATCC 24433 overexpressing ADCaMDR1-GFP assessed as fractional inhibitory concentration index incubated for 48 hrs in presence of caspofungin by checker board assay; type: functional
[33] = tested on: Cell membrane; test: Disruption of membrane integrity in Candida auris CBS10913 assessed as cell shrinkage and lysis by measuring leakage of intracellular material measured after 6 hrs by SEM analysis; settings: Candidozyma auris
[34] = tested on: Candida albicans; test: Inhibition of drug efflux in Candida albicans ATCC 24433 overexpressing ADPDR5-GFP assessed as reduction in rhodamine 6g efflux preincubated for 45 mins followed by substrate addition and measured after 30 mins; type: functional; settings: dose 0.1-100 µg/ml, time 75.0 min, DDE = dose-dependent effect
[35] = tested on: Candida albicans; test: Inhibition of drug efflux in Candida albicans ATCC 24433 overexpressing ADCDR1-GFP assessed as reduction in rhodamine 6g efflux preincubated for 45 mins followed by substrate addition and measured after 30 mins; type: functional; settings: dose 0.1-100 µg/ml, time 75.0 min, DDE = dose-dependent effect
[36] = tested on: Candida albicans; test: Induction of ROS generation in Candida albicans ATCC 24433 assessed as increase in relative fluorescence unit at sub-inhibitory concentration incubated for 1 hr by DCFDA staining-based flow cytometric analysis; type: functional, organism-based
[37] = tested on: Candida; test: Downregulation of GUT1 gene expression in Candida cells; type: functional, cell-based
[38] = tested on: Candida; test: Downregulation of STT4 gene expression in Candida cells; type: functional, cell-based
[39] = tested on: Candida; test: Downregulation of CDC42 gene expression in Candida cells; type: functional, cell-based
[40] = tested on: Candida; test: Downregulation of CDC4 gene expression in Candida cells; type: functional, cell-based
[41] = tested on: Candida; test: Downregulation of CDC15 gene expression in Candida cells; type: functional, cell-based

Row | Structure (SMILES) | MIC80 [1] [µg/mL] | MIC80 [2] [µg/mL] | MIC80 [3] [µg/mL] | MIC80 [4] [µg/mL] | MIC80 [5] [µg/mL] | MIC80 [6] [µg/mL] | MIC80 [7] [µg/mL] | MIC80 [8] [µg/mL] | MIC80 [9] [µg/mL] | MIC80 [10] [µg/mL] | MIC80 [11] [µg/mL] | MIC80 [12] [µg/mL] | MIC80 [13] [µg/mL] | MIC80 [14] [µg/mL] | MIC80 [15] [µg/mL] | MIC80 [16] [µg/mL] | MIC80 [18] [µg/mL] | fractional inhibitory concentration index (FICI) [19] | fractional inhibitory concentration index (FICI) [20] | MIC80 [26] [µg/mL] | also measured
1 | COc1ccc(/C=C/[N+](=O)[O-])cc1OC | 4 (≈ 19.1 µM) | 16 (≈ 76.5 µM) | 16 (≈ 76.5 µM) | 32 (≈ 153 µM) | 32 (≈ 153 µM) | 16 (≈ 76.5 µM) | 16 (≈ 76.5 µM) | 32 (≈ 153 µM) | 16 (≈ 76.5 µM) | 32 (≈ 153 µM) | 16 (≈ 76.5 µM) | 4 (≈ 19.1 µM) | 8 (≈ 38.2 µM) | 32 (≈ 153 µM) | 8 (≈ 38.2 µM) | 16 (≈ 76.5 µM) | – | – | – | – | –
2 | CC/C(=C\c1ccc(OC)cc1)[N+](=O)[O-] | 4 (≈ 19.3 µM) | 2 (≈ 9.65 µM) | 4 (≈ 19.3 µM) | 4 (≈ 19.3 µM) | 4 (≈ 19.3 µM) | 4 (≈ 19.3 µM) | 2 (≈ 9.65 µM) | 4 (≈ 19.3 µM) | 2 (≈ 9.65 µM) | 8 (≈ 38.6 µM) | 2 (≈ 9.65 µM) | 2 (≈ 9.65 µM) | 4 (≈ 19.3 µM) | 4 (≈ 19.3 µM) | 2 (≈ 9.65 µM) | 2 (≈ 9.65 µM) | 2 (≈ 9.65 µM) | <0.5 | <0.5 | 8 (≈ 38.6 µM) | Activity [17]: Active; inhibition [21]: Active; Activity [22]: Active; Activity [23]: Active; Activity [24]: Active; inhibition [25]: Active; fractional inhibitory concentration index (FICI) [27]: <2.5; Activity [28]: Active; Activity [29]: Active; Activity [30]: Active; Activity [31]: Active; fractional inhibitory concentration index (FICI) [32]: <0.5; Activity [33]: Active; inhibition [34]: Dde; inhibition [35]: Dde; Activity [36]: Active
3 | Nc1c(/N=N/c2ccc(-c3ccc(/N=N/c4cc(S(=O)(=O)[O-])c5ccccc5c4N)cc3)cc2)cc(S(=O)(=O)[O-])c2ccccc12.[Na+].[Na+] [CONGO RED] | – | – | – | – | – | – | – | – | – | – | – | – | – | – | – | – | 0.781 | – | – | 100 | –
4 | OC(Cn1cncn1)(Cn1cncn1)c1ccc(F)cc1F [FLUCONAZOLE] | – | – | – | – | – | – | – | – | – | – | – | – | – | – | – | – | 1 (≈ 3.27 µM) | – | – | 1 (≈ 3.27 µM) | –
5 | CC[C@H](C)C[C@H](C)CCCCCCCCC(=O)N[C@H]1C[C@@H](O)[C@@H](NCCN)NC(=O)[C@@H]2[C@@H](O)CCN2C(=O)[C@H]([C@H](O)CCN)NC(=O)[C@H]([C@H](O)[C@@H](O)c2ccc(O)cc2)NC(=O)[C@@H]2C[C@@H](O)CN2C(=O)[C@H]([C@@H](C)O)NC1=O [CASPOFUNGIN] | – | – | – | – | – | – | – | – | – | – | – | – | – | – | – | – | 0.0156 (≈ 0.0143 µM) | – | – | 0.125 (≈ 0.114 µM) | Activity [37]: Active; Activity [38]: Active; Activity [39]: Active; Activity [40]: Active; Activity [41]: Active
6 | CC/C(=C\c1cccc([N+](=O)[O-])c1)[N+](=O)[O-] | 8 (≈ 36 µM) | 4 (≈ 18 µM) | 16 (≈ 72 µM) | 32 (≈ 144 µM) | 16 (≈ 72 µM) | 16 (≈ 72 µM) | 8 (≈ 36 µM) | 16 (≈ 72 µM) | 4 (≈ 18 µM) | 32 (≈ 144 µM) | 16 (≈ 72 µM) | 8 (≈ 36 µM) | 8 (≈ 36 µM) | 8 (≈ 36 µM) | 8 (≈ 36 µM) | 16 (≈ 72 µM) | 8 (≈ 36 µM) | <0.5 | <0.5 | 16 (≈ 72 µM) | fractional inhibitory concentration index (FICI) [27]: <0.5; fractional inhibitory concentration index (FICI) [32]: <0.5
